# Data as given in patent publication US7531660B2, “1-[[1-[(2-amino-6-methyl-4-pyridinyl)methyl]-4-fluoro-4-piperidinyl]carbonyl]-4-[2-(2-pyridinyl)-3H-imidazo[4,5-B]pyridin-3-YL]piperidine and methods of use thereof” (Schering Corporation, priority 2005, dated 2009).
# Values joined by “and” are separate entries in the source; they are usually repeats but may differ in a detail not shown here. Equal values may be shown once. Read-outs that look alike come from different tables or passages of the source.
# Tests used:
# [1] = biological target: T1, recombinant human histamine H3 receptor (Homo sapiens, UniProt Q9Y5N1); experiment: Human H3-receptor binding assay ([3H]N-alpha-methylhistamine, HEK-293 membranes)
# T1 construct: expressed in transfected cells
# Protocol: Binding assays were performed with membranes from HEK-293 cells stably expressing recombinant human histamine H3 receptor. Each 200 μL assay volume contained 1.0 nM [^3H]N^−α-methylhistamine, test compound, and 3 μg of membrane protein in 50 mM Tris-HCl, pH 7.4. Total binding was determined in the absence of compound and nonspecific binding in the presence of 10^−5 M thioperamide. Material was incubated 30 minutes at 30° C. then filtered on GF/B filters. These were rinsed three times with cold buffer, then dried, impregnated with Meltilex scintillation counting medium, and counted. Ki values were determined from standard curve-fitting procedures. […] Values are averages from two assays with duplicate determinations in each. Errors are expressed as the range of these values from the mean.
# Feline H3 Receptors = Feline H3 Receptors (Felis catus, UniProt A0ABI7WGM6); experiment: Binding to feline H3 receptors, brain P2 membranes; conditions: Cat brain membranes, N=3, mean ± SEM
# Protocol: (§1) Binding assays were performed with membranes from a P2 pellet preparation of brain from each species as described in West et al., Mol Pharmacol 38:610-613 (1990). Frozen brains were thawed at room temperature and then disrupted in ten volumes (w:v) of ice-cold 50 mM Tris-HCl, pH 7.4, with a Polytron. Homogenates were centrifuged at 1000×g and supernatants then centrifuged at 50,000×g. Pellets from the second centrifugation were resuspended in buffer, sedimented again at 50,000×g, and stored frozen at −80° C.
# (§2) Each 200 μL assay volume contained 1.0 nM [^3H]N^−α-methylhlstamine, test compound, and 300 μg of membrane protein in 50 mM Tris-HCl, pH 7.4. Total binding was determined in the absence of compound and nonspecific binding in the presence of 10^−5 M thioperamide. Assay mixtures are incubated 30 minutes at 30° C. then filtered on CF/B filters. Filters were rinsed three times with cold buffer, dried, impregnated with Meltilex scintillation counting medium, and counted. IC50 values were determined using standard curve-fitting procedures and Ki values were calculated from these using the method set forth in Cheng et al., Biochem Pharmacol 22:3099-3108 (1973). Each competition binding assay comprised ten concentrations of compound, each concentration assayed in duplicate. Binding data obtained for the Compound of Formula I to canine and feline H3 receptors are set forth below in Table 1. […]
# Canine H3 Receptors = Canine H3 Receptors (Canis lupus familiaris, UniProt A0A8I3P226); experiment: Binding to canine H3 receptors, brain P2 membranes; conditions: Dog brain membranes, N=2, mean ± SEM
# Protocol: as §1, §2
# [2] = Oral tolerance in dogs with plasma level analysis; format: in vivo, beagle dogs; conditions: for Plasma level at Day 0: prior to the study; for concentration at 24 h / concentration at 7 day: beagle, dog, plasma, po; for concentration at 24 h / concentration at 7 day / Plasma level at Day 1 / Plasma level at Day 7: 5 mg/kg, 5 mg/kg oral daily; for concentration at 24 h / Plasma level at Day 1: 24 hours after first dose; for concentration at 24 h: read-out: Plasma level at Day 1; for concentration at 7 day / Plasma level at Day 7: end of study
# Protocol: Male and female beagle dogs (N=6, age≧4 months, each having a body weight of from 10-15 kg) were used in this study. The treated animals (N=4) were orally administered the Compound of formula I once a day for 7 days at a daily dosage of 5 mg/kg (5 times proposed efficacy dose). The control animals (N=2) were orally administered vehicle only. Animals were fasted for 8 hours prior to each administration of the Compound of formula I or vehicle and were fasted for 2 hours after each administration of the Compound of formula I or vehicle. Blood samples were collected before, during, and after the treatment period for pharmacokinetic analysis.
# Approximately 4.0±1 mL of blood was drawn from each animal at prior to the study (day 0), at 24 hours after the first dose (day 1), and at the end of the study (day 7), using jugular venipuncture and immediately placed into separated Vacutainer® tubes containing EDTA anticoagulant, and processed for plasma. The plasma was aspirated and divided into two aliquots (≧0.3 ml each) and each aliquot was frozen at −70° C. or less.
# Collected blood plasma samples were analyzed for the concentration of the Compound of formula I using the following analytical method: […]
# D: Sample Preparation Procedure: • 1) Pipette 40 μL of sample into a 1 mL 96-well plate. • 2) Add 150 μL of internal standard solution to each well. • 3) Gently vortex plate for 1 minute. • 4) Centrifuge samples for 10 minutes (Eppendorf 5810 Centifuge). • 5) Pipette 100 μL of supernatant into a 350 μL 96-well plate. Results
# [3] = tested on: mice made obese with a high fat diet; experiment: Diet-induced obesity in mice (weight gain); format: in vivo; conditions: DIO mice, oral once a day, 0.3 mg/kg in 20% aqueous HPBCD
# Protocol: Diet-induced obesity (DIO) was determined according to the following procedure. Young mice were maintained in individual cages at 22° C. on a 12:12 hr light/dark cycle. Mice were made obese with a high fat diet. Mice were orally gavaged daily with vehicle or compound; body weight and food intake were monitored daily.
# [4] = tested on: mice having diet-induced obesity; experiment: Liver triglycerides in obese mice; format: in vivo; conditions: DIO mice, 10 mg/kg/day gavage for 12 days
# Protocol: The Compound of Formula I was administered daily for 12 days via gavage to mice having diet-induced obesity at a dosage of 10 mg/kg/day (vehicle 0.4% aqueous methylcellulose (MC); see procedure for diet-induced obesity described above).
# On day 12, the animals were sacrificed, their livers were collected, and liver pieces were extracted according to the procedure of Folch et al., J. Biol. Chem. 226:497-509 (1957). The collected liver tissue was then homogenized in 6 mL of chloroform:methanol (2:1), 4 mL water was added to the homogenized mixture and the resulting solution was vortexed, then centrifuged at 1000×g for 30 minutes. The chloroform layer was removed and dried under nitrogen to provide the extracted lipids, which were redissolved in 1 mL chloroform and aliquots were transferred into HPLC sample vials. […]
# Chromatography was performed using an isocratic mobile phase containing 98.8% hexane and 1.2% isopropanol at a flow rate of 2 mL/min through a Zorbax Sil (4.6×25 cm) silica column (Agilent Technologies #880952-701). Lipids in a 5 μL injection were detected by absorbance at 206 nm and quantitated by computer integration (System Gold, Beckman) of elution profiles. Cholesterol, cholesteryl ester, and triglyceride concentrations were determined by comparison to standard curves using Non-polar Lipid Mix-B, Matreya, Inc., Pleasant Gap, Pa. cat. #1130.
# [5] = Canine pharmacokinetics after oral and i.v. administration; format: in vivo, beagle dogs; conditions: fasted dogs; for MRT: read-out: Mean Residence Time (MRT)
# Protocol: The Compound of Formula I was administered at a dose of 3 mg/kg to fasted beagle dogs orally (PO) at […] (0.4% MC formulation) and i.v. at […] (captisol, pH 5.1 fornulation). Blood samples were taken at multiple time intervals for 48 hours post dosing. The blood samples were converted to plasma and stored at −20° C. until being assayed for the Compound of Formula I using an HPLC-API-MS/MS procedure. The pharmacokinctic parameters that were calculated from thiis study are sumarized in Table 2 below.
# [6] = both sexes, Mean of 4 treated dogs
# [7] = dogs, daily oral 5 mg/kg for 7 days
# [8] = male, male dog, individual animal
# [9] = beagle, dog, plasma, IV 3 mg/kg
# [10] = beagle, dog, plasma, oral 3 mg/kg
# [11] = beagle, dog, plasma, oral 3 mg/kg, 0.4% MC
# T1 sequence (Q9Y5N1 whole entry): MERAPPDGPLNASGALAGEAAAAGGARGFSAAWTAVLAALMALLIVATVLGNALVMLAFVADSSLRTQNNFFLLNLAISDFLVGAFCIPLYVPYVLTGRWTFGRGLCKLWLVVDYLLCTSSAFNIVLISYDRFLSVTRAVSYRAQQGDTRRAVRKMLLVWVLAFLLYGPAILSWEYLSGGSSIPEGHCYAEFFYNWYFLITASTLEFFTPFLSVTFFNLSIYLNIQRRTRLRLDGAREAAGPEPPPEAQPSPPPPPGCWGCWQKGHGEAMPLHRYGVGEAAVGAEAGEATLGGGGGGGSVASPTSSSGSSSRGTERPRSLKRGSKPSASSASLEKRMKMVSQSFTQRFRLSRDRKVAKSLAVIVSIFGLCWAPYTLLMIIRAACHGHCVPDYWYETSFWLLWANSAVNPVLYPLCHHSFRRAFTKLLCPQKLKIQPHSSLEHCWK
# Canine H3 Receptors, sequence (A0A8I3P226 1-445): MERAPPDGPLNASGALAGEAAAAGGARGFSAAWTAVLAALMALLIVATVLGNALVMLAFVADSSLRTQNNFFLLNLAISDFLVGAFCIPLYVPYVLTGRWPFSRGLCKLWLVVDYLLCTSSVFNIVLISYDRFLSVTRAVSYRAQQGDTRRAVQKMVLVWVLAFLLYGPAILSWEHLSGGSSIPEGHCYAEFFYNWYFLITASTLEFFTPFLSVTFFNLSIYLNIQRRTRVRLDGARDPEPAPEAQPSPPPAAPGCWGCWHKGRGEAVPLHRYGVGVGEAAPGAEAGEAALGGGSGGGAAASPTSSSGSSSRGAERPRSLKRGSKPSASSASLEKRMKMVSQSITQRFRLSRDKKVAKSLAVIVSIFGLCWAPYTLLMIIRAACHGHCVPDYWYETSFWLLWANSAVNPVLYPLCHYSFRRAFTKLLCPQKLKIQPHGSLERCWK
# Feline H3 Receptors, sequence (A0ABI7WGM6 entry or part of it): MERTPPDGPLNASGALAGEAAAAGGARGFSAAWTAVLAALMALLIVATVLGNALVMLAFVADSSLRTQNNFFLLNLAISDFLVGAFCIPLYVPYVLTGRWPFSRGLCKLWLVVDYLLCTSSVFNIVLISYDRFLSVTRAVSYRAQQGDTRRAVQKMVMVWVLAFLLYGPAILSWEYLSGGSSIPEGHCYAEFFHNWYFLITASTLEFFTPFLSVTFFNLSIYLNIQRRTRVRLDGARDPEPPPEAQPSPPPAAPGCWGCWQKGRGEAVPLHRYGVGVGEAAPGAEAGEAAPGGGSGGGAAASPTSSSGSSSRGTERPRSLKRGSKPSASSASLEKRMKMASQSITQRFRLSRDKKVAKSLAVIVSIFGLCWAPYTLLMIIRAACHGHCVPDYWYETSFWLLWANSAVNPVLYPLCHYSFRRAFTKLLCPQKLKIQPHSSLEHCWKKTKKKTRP
smiles,measurement,setting,value
"Cc1cc(CN2CCC(F)(C(=O)N3CCC(n4c(-c5ccccn5)nc5cccnc54)CC3)CC2)cc(N)n1 [Compound of Formula I, 1-[[1-[(2-amino-6-methyl-4-pyridinyl)methyl]-4-fluoro-4-piperidinyl]carbonyl]-4-[2-(2-pyridinyl)-3H-imidazo[4,5-b]pyridin-3-yl]piperidine]",Ki,[1],4.6 nM
same,Ki,Feline H3 Receptors,4.9 ± 0.6 nM
same,Ki,Canine H3 Receptors,1.3 ± 0.2 nM
same,Plasma level at Day 0,[2]; Mean of 4 treated dogs,1.70 ng/mL
same,concentration at 24 h,[2]; [6],257 ng/mL
same,concentration at 7 day,[2]; [6],422 ng/mL
same,accumulation in plasma,"[2]; dogs, 7 days daily oral 5 mg/kg",accumulated 7 days after daily oral administration
same,adverse events,[2]; [7],No adverse events were observed
same,tolerability,[2]; [7],well tolerated
same,Plasma level at Day 1,"[2]; female dog, individual animal",148 ng/mL and 604 ng/mL
same,Plasma level at Day 7,"[2]; female dog, individual animal",680 ng/mL
same,Plasma level at Day 0,"[2]; female dog, individual animal",0 ng/mL
same,concentration at 7 day,"[2]; female, female dog, individual animal",540 ng/mL
same,Plasma level at Day 1,"[2]; male dog, individual animal",157 ng/mL
same,Plasma level at Day 7,"[2]; male dog, individual animal",207 ng/mL
same,Plasma level at Day 0,"[2]; male dog, individual animal",0 ng/mL and 6.8 ng/mL
same,concentration at 24 h,[2]; [8],118 ng/mL
same,concentration at 7 day,[2]; [8],263 ng/mL
same,inhibition of weight gain,[3],statistically significant inhibition of weight gain
same,reduction in liver triglyceride content relative to control,[4]; 0.4% MC,52%
same,liver triglyceride content,"[4]; compound treated group, average",861±87 mg/liver
same,clearance,[5]; [9],1.7 mL/min/kg
same,half-life,[5]; [9],9.5 h
same,AUC(0-inf),"[5]; beagle, dog, plasma, IV 3 mg/kg, captisol pH 5.1",32800 ng·h/mL
same,MRT,[5]; [9],10.9 h
same,Vd,"[5]; beagle, dog, plasma, IV 3 mg/kg, read-out: Vd (ss)",1.1 L/kg
same,Cmax,[5]; [10],910 ng/mL
same,AUC(0-inf),[5]; [11],18900 ng·h/mL
same,bioavailability,[5]; [11],58%
same,MRT,[5]; [10],18.6 h
same,Mean Absorption Time (MAT) (MRTpo − MRTiv),[5]; oral 3 mg/kg,7.8 h
